Experimental data: patent US20220386606A1, “SPECIFICALLY SUBSTITUTED 3-PHENYL-5-SPIROCYCLOPENTYL-3-PYRROLIN-2-ONES AND THEIR USE AS HERBICIDES” (Bayer Aktiengesellschaft, priority 2019, published 2022)

What was measured:
AVEFA [1] = assay: Post-emergence herbicidal action against AVEFA; format: in vivo, Avena fatua; conditions: 80 g/ha, visual assessment after about 3 weeks
Method: (§1) Seeds of monocotyledonous and dicotyledonous weed and crop plants are laid out in sandy loam soil in wood-fiber pots, covered with soil and cultivated in a greenhouse under good growth conditions. 2 to 3 weeks after sowing, the test plants are treated at the one-leaf stage. The compounds of the invention, formulated in the form of wettable powders (WP) or as emulsion concentrates (EC), are then sprayed onto the green parts of the plants as aqueous suspension or emulsion at a water application rate equating to 600 to 800 l/ha with addition of 0.2% wetting agent. After the test plants have been left to stand in the greenhouse under optimal growth conditions for about 3 weeks, the action of the preparations is assessed visually in comparison to untreated controls (herbicidal action in percent (%): 100% activity=the plants have died, 0% activity=like control plants).

DIGSA [2] = assay: Pre-emergence herbicidal action against DIGSA; format: in vivo, Digitaria sanguinalis; conditions: 320 g/ha, scored visually after 3 weeks vs untreated controls
Text: (§2) Seeds of monocotyledonous and dicotyledonous weed plants and crop plants are laid out in sandy loam soil in wood-fiber pots and covered with soil. The compounds of the invention, formulated in the form of wettable powders (WP) or as emulsion concentrates (EC), are then applied to the surface of the covering soil as aqueous suspension or emulsion at a water application rate equating to 600 to 800 L/ha with addition of 0.2% wetting agent.
(§3) After the treatment, the pots are placed in a greenhouse and kept under good growth conditions for the trial plants. The damage to the test plants is scored visually after a test period of 3 weeks by comparison with untreated controls (herbicidal activity in percent (%): 100% activity=the plants have died, 0% activity=like control plants).

ALOMY [3] = assay: Post-emergence herbicidal action against ALOMY; format: in vivo, Alopecurus myosuroides; conditions: 80 g/ha, visual assessment after about 3 weeks
Method: as §1

ECHCG [4] = assay: Post-emergence herbicidal action against ECHCG; format: in vivo, Echinochloa crus-galli; conditions: 80 g/ha, visual assessment about 3 weeks after treatment vs untreated controls
Method: as §1

SETVI [5] = assay: Post-emergence herbicidal action against SETVI; format: in vivo, Setaria viridis; conditions: 80 g/ha, visual assessment about 3 weeks after treatment vs untreated controls
Method: as §1

AMARE = assay: Pre-emergence herbicidal action against AMARE; format: in vivo, Amaranthus retroflexus; conditions: 320 g/ha
Text: as §2, §3

ECHCG [6] = assay: Pre-emergence herbicidal action against ECHCG; format: in vivo, Echinochloa crus-galli; conditions: 320 g/ha, scored visually after 3 weeks vs untreated controls
Text: as §2, §3

ALOMY [7] = assay: Pre-emergence herbicidal action against ALOMY; format: in vivo, Alopecurus myosuroides; conditions: 320 g/ha, scored visually after 3 weeks vs untreated controls
Text: as §2, §3

LOLRI [8] = assay: Pre-emergence herbicidal action against LOLRI (Table 8, titled post-emergence at 320 g/ha); format: in vivo, Lolium rigidum; conditions: table stands in the pre-emergence section
Text: as §2, §3

SETVI [9] = assay: Pre-emergence herbicidal action against SETVI; format: in vivo, Setaria viridis; conditions: 320 g/ha, scored visually after 3 weeks vs untreated controls
Text: as §2, §3

DIGSA [10] = assay: Post-emergence herbicidal action against DIGSA; format: in vivo, Digitaria sanguinalis; conditions: 80 g/ha, visual assessment about 3 weeks after treatment vs untreated controls
Method: as §1

AVEFA [11] = assay: Pre-emergence herbicidal action against AVEFA; format: in vivo, Avena fatua; conditions: 320 g/ha, scored visually after 3 weeks vs untreated controls
Text: as §2, §3

LOLRI [12] = assay: Post-emergence herbicidal action against LOLRI; format: in vivo, Lolium rigidum; conditions: 80 g/ha, visual assessment about 3 weeks after treatment vs untreated controls
Method: as §1

VIOTR = assay: Pre-emergence herbicidal action against VIOTR; format: in vivo, Viola tricolor; conditions: 320 g/ha
Text: as §2, §3

SMILES | Post-emergence action against AVEFA in % (AVEFA [1]) | Pre-emergence action against DIGSA in % (DIGSA [2]) | Post-emergence action against ALOMY in % (ALOMY [3]) | Post-emergence action against ECHCG in % (ECHCG [4]) | Post-emergence action against SETVI in % (SETVI [5]) | Pre-emergence action against AMARE in % (AMARE) | Pre-emergence action against ECHCG in % (ECHCG [6]) | Pre-emergence action against ALOMY in % (ALOMY [7]) | Pre-emergence herbicidal action against LOLRI in % (LOLRI [8]) | Pre-emergence action against SETVI in % (SETVI [9]) | Post-emergence action against DIGSA in % (DIGSA [10]) | Pre-emergence action against AVEFA in % (AVEFA [11]) | Post-emergence action against LOLRI in % (LOLRI [12]) | Pre-emergence action against VIOTR in % (VIOTR)
C=CCOCC1CCC2(C1)NC(=O)C(c1c(F)cc(C#CC)cc1OC)=C2O (stereo not shown) [Example I-55] | 90% | 100% | 100% | 100% | 100% | 80% | 100% | 100% | 100% | 100% | – | – | – | –
C#CCOCC1CCC2(C1)NC(=O)C(c1c(F)cc(C#CC)cc1OC)=C2OC(=O)OCC (stereo not shown) [Example P-104] | 90% | 100% | 100% | 100% | 100% | 100% | 100% | 100% | 100% | 100% | 90% | – | – | –
CC#Cc1cc(C)c(C2=C(O)C3(CCC(COCC)C3)NC2=O)c(Br)c1 (stereo not shown) [Example I-20] | – | 100% | 100% | 100% | 100% | – | 100% | 100% | 100% | 100% | 90% | 100% | 100% | 100%
C#CCOCC1CCC2(C1)NC(=O)C(c1c(C)cc(C#CC)cc1OC)=C2O (stereo not shown) [Example I-76] | 90% | 100% | 90% | 100% | 100% | – | 100% | 100% | 100% | 100% | 90% | – | 90% | 90%
CC#Cc1cc(C)c(C2=C(OC(=O)C(C)C)C3(CCC(COCC)C3)NC2=O)c(F)c1 (stereo not shown) [Example P-59] | 90% | 100% | 100% | 100% | 100% | – | 100% | 100% | 100% | 100% | 100% | 100% | 100% | 100%
CC#Cc1cc(F)c(C2=C(OC(=O)C(C)C)C3(CCC(COC)C3)NC2=O)c(OC)c1 (stereo not shown) [Example P-66] | 90% | 100% | 90% | 100% | 100% | – | 100% | 100% | 90% | 100% | 100% | 100% | 100% | –
CC#Cc1cc(C)c(C2=C(O)C3(CCC(COC)C3)NC2=O)c(OC)c1 (stereo not shown) [Example I-33] | 100% | 100% | 100% | 100% | 100% | – | – | 100% | 100% | 100% | 100% | 80% | 100% | 100%
C#CCOCC1CCC2(C1)NC(=O)C(c1c(F)cc(C#CC)cc1OC)=C2OC(=O)OCC (stereo not shown) [Example P-102] | 80% | 100% | 90% | 80% | 90% | 90% | 100% | 100% | 100% | 100% | 90% | 80% | 90% | –
CC#Cc1cc(F)c(C2=C(OC(=O)OCC)C3(CCC(COC)C3)NC2=O)c(OC)c1 (stereo not shown) [Example P-63] | 80% | 100% | 100% | 100% | 100% | – | 90% | 100% | 100% | 100% | 100% | 90% | 100% | –
C=CCOCC1CCC2(C1)NC(=O)C(c1c(C)cc(C#CC)cc1OC)=C2O (stereo not shown) [Example I-45] | 80% | 100% | 90% | 100% | 100% | – | 100% | 80% | 100% | 100% | 90% | – | – | 80%
CC#Cc1cc(Br)c(C2=C(OC(=O)OCC)C3(CCC(COCC)C3)NC2=O)c(OCC)c1 (stereo not shown) [Example P-95] | 80% | 100% | 100% | 100% | 100% | – | 100% | 100% | 100% | 100% | 80% | 100% | 90% | –
CC#Cc1cc(Br)c(C2=C(OC(=O)C(C)C)C3(CCC(COCC)C3)NC2=O)c(CC)c1 (stereo not shown) [Example P-43] | – | – | – | – | – | – | – | – | – | – | – | – | – | 100%
CC#Cc1cc(F)c(C2=C(OC(=O)C(C)C)C3(CCC(COC)C3)NC2=O)c(OC)c1 (stereo not shown) [Example P-65] | 90% | 100% | 90% | 90% | 100% | – | 100% | 100% | 100% | 100% | 100% | 100% | 100% | 80%
CC#Cc1cc(C)c(C2=C(OC(=O)OCC)C3(CCC(COC)C3)NC2=O)c(OC)c1 (stereo not shown) [Example P-47] | 90% | 100% | 100% | 100% | 100% | 100% | 100% | 100% | – | 100% | 100% | 100% | 100% | 100%
